Measured values: US20110251220A1, “Pharmaceutical compositions comprising gamma secretase modulators” (priority 2008, published 2011)
pIC50: −log10 of the molar value.

Legend:
human podocyte cell line = assay: TGFβ-induced apoptosis in human podocyte cell line (Cell Death Detection ELISA); type: cell-based
Procedure: The percentage of the apoptotic cells was determined after 24 hours using the Cell Death Detection ELISA (Roche Diagnostics, Mannheim, Germany) according to the manufaturer's protocol.

male Sprague-Dawley rats = assay: PAN-model of albuminuric glomerular disease; type: in vivo, rat; conditions: day 5, 500 μg/100 g rat i.p. once per day, compared to PAN alone
Procedure: For the in vivo studies male Sprague-Dawley rats were purchased from Charles River and treated with puromycin aminoglycoside (PAN) to induce albuminuric glomerular disease as described previously (Niranjan et al., “The Notch pathway in podocytes plays a role in the development of glomerular disease.” Nat. Med. 14: 290-298, 2008). Rats were injected PAN (150 mg/kg) once. The test compounds were administered intraperitoneally (500 μg/100 g rat) once per day (n=4 animals per group). Injection of test compounds were started one day after PAN injection. All studies were performed in accordance with the European Union normative. As a positive control one group of rats received gamma secretase inhibitor DAPT.
Urinary albumine was measured at the indicated days as described previously (Sanchez-Nino et al., “The MIF receptor CD74 in diabetic podocyte injury”. J. Am. Soc. Nephrol. 20: 353-362, 2009). For total protein measurement urine samples were centrifuged and pellets were diluted in distilled water. Exton reagent (230 mM sulfosalic acid, 1.4 M sodium sulfate) was added and after 10 minutes absorbance was measured at 620 nm.

MM cells = assay: Proliferation assay (CellTiter-Glo), concentration of 50% growth inhibition; type: cell-based; conditions: Homo sapiens; read-out: Concentration at which 50% cell growth inhibition was observed
Procedure: Human MM cell lines used were as follows: NCI-H929, OPM-2, LP-1, RPMI-8226, U266 (DSMZ, Braunschweig, Germany). Cell lines were cultured in RPMI 1640 medium (Biochrom, Berlin, Germany) supplemented with 10% heat-inactivated fetal calf serum (FCS, Gibco, Karlsruhe, Germany), 1 mM sodium pyruvate and 100 units/ml penicillin and 100 μg/ml streptomycin (Gibco). Human osteoclasts were obtained as described in the reference of Zavrski I, Krebbel H, Wildemann B, et al. Proteasome inhibitors abrogate osteoclast differentiation and osteoclast function. Biochem Biophys Res Commun. 2005; 333:200-205. Briefly, peripheral blood mononuclear cells (PBMC) were isolated from whole blood of healthy volunteers, using a Ficoll-Hypaque density gradient. The adherent fraction of the isolated mononuclear cells was cultured for 21 days in MEM medium (Sigma-Aldrich Chemie, Taufkirchen, Germany) supplemented with 10% FCS, 100 U/ml penicillin, 100 μg/ml streptomycin, 50 ng/ml M-CSF, and 25 ng/ml RANKL (osteoclastogenic medium), before coculture experiments and treatment with the inventive compounds started. Human osteoblasts were obtained according to Robey P G, Termine J D. Human bone cells in vitro. Calcif Tissue Int. 1985; 37:453-460 as described in Hecht M, Heider U, Kaiser M, von Metzler I, Sterz J, Sezer O. Osteoblasts promote migration and invasion of myeloma cells through upregulation of matrix metalloproteinases, urokinase plasminogen activator, hepatocyte growth factor and activation of p38 MAPK. Br J Haematol. 2007; 138: 446-458. Briefly, trabecular bone specimens from patients without malignant disease undergoing knee or hip surgery were minced and washed to remove bone marrow cells. The bone fragments were resuspended in Dulbecco's modified Eagle's medium (DMEM)/HAM's F12 medium (Biochrom, Berlin, Germany) supplemented with 10% FCS and cultured in tissue culture flasks until a confluent cell monolayer was obtained. Culturing of functional osteoblasts was confirmed by alkaline phosphatase (ALP) staining (kit from Sigma, USA), realtime RT-PCR analysis of expression of osteoblast markers (ALP, osteocalcin) and by von-Kossa staining before coculture and treatment experiments were started.
The compound according to example 1, hereinafter referred to as GSI15, (compound RH02015SC, Maybridge, Acros Organics, Geel, Belgium) was freshly dissolved as 26 mM stock solution in Dimethylsulfoxide (DMSO). Multiple myeloma therapeutics used were melphalan (marketed as Alkeran®, GlaxoSmithKline, Munich, Germany) and bortezomib (marketed as Velcade®, Janssen-Cilag, Neuss, Germany). Melphalan was freshly dissolved at 10 mg/ml in 0.9% NaCl-solution. Bortezomib was freshly dissolved at 100 ng/ml in 0.9% NaCl solution. Gamma Secretase Inhibitor (GSI) treatment for apoptosis assessment by AnnexinV/PI staining, cell cycle analysis and coculture experiments was performed in 6-well plates. GSI15 stock solution was added directly to the cell suspension. GSI treatment for assaying proliferation was performed in 96-well plates. 10,000 cells per well were seeded in 50 μl medium per well before 50 μl of a 2× solution of GSI15 prediluted in medium were added per well. […]
For assaying proliferation/viability of cells CellTiter-Glo Luminescent Cell Viability Assay (Promega, Mannheim, Germany) was used. In this assay the number of viable cells at a given time point is determined by quantification of ATP present, which serves as a measure of metabolically active cells. […]

OPM-2 cells = assay: Apoptosis by AnnexinV-FITC/PI staining, OPM-2; type: cell-based, human; conditions: for cell death: OPM-2, 24 h or 48 h, single agent
Procedure: The compound according to example 1, hereinafter referred to as GSI15, (compound RH02015SC, Maybridge, Acros Organics, Geel, Belgium) was freshly dissolved as 26 mM stock solution in Dimethylsulfoxide (DMSO). Multiple myeloma therapeutics used were melphalan (marketed as Alkeran®, GlaxoSmithKline, Munich, Germany) and bortezomib (marketed as Velcade®, Janssen-Cilag, Neuss, Germany). Melphalan was freshly dissolved at 10 mg/ml in 0.9% NaCl-solution. Bortezomib was freshly dissolved at 100 ng/ml in 0.9% NaCl solution. Gamma Secretase Inhibitor (GSI) treatment for apoptosis assessment by AnnexinV/PI staining, cell cycle analysis and coculture experiments was performed in 6-well plates. GSI15 stock solution was added directly to the cell suspension. GSI treatment for assaying proliferation was performed in 96-well plates. 10,000 cells per well were seeded in 50 μl medium per well before 50 μl of a 2× solution of GSI15 prediluted in medium were added per well. Melphalan and bortezomib treatment as well as their combination with GSI15 for assaying apoptosis by AnnexinV/PI staining was done in 6-well plates. All inhibitors were added directly to the cells in 6-well plates.
For cell cycle analysis 2×10^5 cells were spun down, medium was aspirated and cells washed with PBS. Cells were then resuspended in 250 μl PBS. 1 ml ice-cold 70% ethanol was added, followed by overnight incubation at −20° C. Cells were spun down, the pellet washed with PBS and then resuspended in 200 μl PBS containing 0.15 mg/ml RNaseA and 30 μg/ml propidium iodide (PI). After 10 minutes incubation in the dark at room temperature, cells were analyzed by flow cytometry. The amount of apoptotic cells was determined by AnnexinV/propidium iodide staining using Human AnnexinV-FITC Kit (Bender Medsystems, Vienna, Austria), according to manufacturer's protocol. Briefly, 2×10^5 cells were spun down and washed with PBS, followed by 10 minutes incubation in binding buffer containing AnnexinV-FITC conjugate. Cells were then spun down again, resuspended in binding buffer containing PI and analyzed by flow cytometry.

C[C@H](NC(=O)Cc1cc(F)cc(F)c1)C(=O)N[C@H](C(=O)OC(C)(C)C)c1ccccc1 [DAPT, reference compound]
inhibition of apoptosis (human podocyte cell line; 1 μM, compared to TGFβ alone, 24 hours): 37%

CC(C)(C)c1ccc(Oc2ncccc2NS(=O)(=O)c2ccccc2C(F)(F)F)cc1 [Example 2, N-(2-(4-tert-butylphenoxy)pyridin-3-yl)-2-(trifluoromethyl)benzenesulfonamide]
inhibition of albuminuria (male Sprague-Dawley rats): 42%
inhibition of proteinuria (male Sprague-Dawley rats): 37%
effect in podocyte cell culture experiments (human podocyte cell line): positive effect
inhibition at 3 µM (human podocyte cell line; Homo sapiens, 3 μM, compared to TGFβ alone, 24 hours): 27%
inhibition at 10 µM (human podocyte cell line; Homo sapiens, 10 μM, compared to TGFβ alone, 24 hours): 27%
pIC50 (MM cells): 4.52

Cc1ccc(Sc2ncccc2NS(=O)(=O)c2ccc(Cl)cc2)cc1 [Example 3, 4-chloro-N-(2-(p-tolylthio)pyridin-3-yl)benzenesulfonamide]
pIC50 (MM cells): 4.52

CC(Sc1nc(=O)cc(N)n1CCc1ccccc1)C(=O)Nc1cccc(Cl)c1 (stereo not shown) [Example 4, 2-(6-amino-4-oxo-1-phenethyl-1,4-dihydropyrimidin-2-ylthio)-N-(3-chlorophenyl)propanamide]
pIC50 (MM cells): 4.70

Nc1cc(=O)nc(SCC(=O)Nc2ccc(Cl)cc2)n1CCc1ccccc1 [Example 5, 2-(6-amino-4-oxo-1-phenethyl-1,4-dihydropyrimidin-2-ylthio)-N-(4-chlorophenyl)acetamide]
pIC50 (MM cells): 4.70

CC(C)C[C@H](NC(=O)[C@H](Cc1ccccc1)NC(=O)c1cnccn1)B(O)O [bortezomib]
cell death (OPM-2 cells): dose-dependently triggered cell death

N[C@@H](Cc1ccc(N(CCCl)CCCl)cc1)C(=O)O [melphalan]
apoptotic cells (OPM-2 cells; OPM-2, 50 μM melphalan alone, 24 h): 32%
cell death (OPM-2 cells): dose-dependently triggered cell death
